In US20250034173A1, “PYRIDO[4,3-D]PYRIMIDINE COMPOUNDS” (PFIZER INC., priority 2023, published 2025):

Experiments:
[1] = tested on: SW620 (colorectal cancer cell line); experiment: KRAS Cell Titer Glo (CTG) cell proliferation assay, SW620; type: cell-based; conditions: Homo sapiens, SW-620, 168 h; SW620 cells, 7-day CTG, geomean IC50
Method in brief: (§1)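 Compounds pre-dispensed in 0.1% DMSO before seeding H358 (300 cells/well), SW620 (750) or PANC08.13 (600); 7-day exposure at 37 °C, 5% CO2. Viability by CellTiter-Glo luminescence after 15 min at room temperature. Percent effect normalised to DMSO (0%) and 1 uM trametinib (100%); geomean IC50.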

NRAS Wild Type = NRAS Wild Type (Homo sapiens (Human), UniProt P01111); experiment: SPR binding affinity and kinetics, GTPγS-loaded NRAS Wild Type; conditions: GTPγS loaded protein, geomean
Description: (§2) No additional regeneration was used.
(§3) Compound dissociation was monitored for at least 3600 seconds. […] No additional regeneration was used.
(§4) The adequateness of the fit was judged by c2 values and the randomness of residue distribution.

[2] = tested on: H358 (non-small cell lung cancer cell line); experiment: KRAS Cell Titer Glo (CTG) cell proliferation assay, H358; type: cell-based; conditions: Homo sapiens, NCI-H358, 168 h; H358 cells, 7-day CTG, geomean IC50
Method in brief: as §1

KRAS G12D = KRAS G12D (Homo sapiens (Human), UniProt P01116, G12D); experiment: SPR binding affinity and kinetics, GTPγS-loaded KRAS G12D; conditions: GTPγS loaded protein, geomean
Method in brief: (§5)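 Binding was measured by SPR. Dissociation was then monitored for no less than 3600 seconds. No additional regeneration step followed. Finally, the fit was checked by c2 and residue distribution randomness.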

KRAS G12C = KRAS G12C (Homo sapiens (Human), UniProt P01116, G12C); experiment: SPR binding affinity and kinetics, GTPγS-loaded KRAS G12C; conditions: GTPγS loaded protein, geomean
Method in brief: as §5

[3] = tested on: PANC08.13 (pancreatic cancer cell line); experiment: KRAS Cell Titer Glo (CTG) cell proliferation assay, PANC08.13; type: cell-based; conditions: Homo sapiens, PANC-08-13, 168 h; PANC08.13 cells, 7-day CTG, geomean IC50
Method in brief: as §1

HRAS Wild Type = HRAS Wild Type (Homo sapiens (Human), UniProt P01112); experiment: SPR binding affinity and kinetics, GTPγS-loaded HRAS Wild Type; conditions: GTPγS loaded protein, geomean
Description: as §2, §3, §4

KRAS Wild Type = KRAS Wild Type (Homo sapiens (Human), UniProt P01116); experiment: SPR binding affinity and kinetics, GTPγS-loaded KRAS Wild Type; conditions: GTPγS loaded protein, geomean
Method in brief: as §5

KRAS G12V = KRAS G12V (Homo sapiens (Human), UniProt P01116, G12V); experiment: SPR binding affinity and kinetics, GTPγS-loaded KRAS G12V; conditions: GTPγS loaded protein, geomean
Method in brief: as §5

NRAS Wild Type, sequence (P01111 2-185): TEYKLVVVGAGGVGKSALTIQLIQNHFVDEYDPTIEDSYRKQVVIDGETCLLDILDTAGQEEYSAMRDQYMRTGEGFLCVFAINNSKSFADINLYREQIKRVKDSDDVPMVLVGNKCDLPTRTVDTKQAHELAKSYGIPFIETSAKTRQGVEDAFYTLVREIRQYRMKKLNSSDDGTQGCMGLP
KRAS G12C, sequence (P01116 other isoform, or with tags, fused parts or gaps G12C): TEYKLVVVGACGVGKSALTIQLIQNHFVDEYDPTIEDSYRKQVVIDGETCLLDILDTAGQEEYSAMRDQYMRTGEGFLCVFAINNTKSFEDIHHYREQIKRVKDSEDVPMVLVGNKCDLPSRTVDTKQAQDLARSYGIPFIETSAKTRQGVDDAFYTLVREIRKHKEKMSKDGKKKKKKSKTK
KRAS Wild Type, sequence (P01116 other isoform, or with tags, fused parts or gaps): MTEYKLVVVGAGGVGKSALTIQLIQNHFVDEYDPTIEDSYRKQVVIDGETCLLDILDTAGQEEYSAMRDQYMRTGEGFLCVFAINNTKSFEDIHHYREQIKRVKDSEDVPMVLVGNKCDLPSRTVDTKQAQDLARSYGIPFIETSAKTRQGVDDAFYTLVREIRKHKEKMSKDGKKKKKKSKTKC
KRAS G12V, sequence (P01116 other isoform, or with tags, fused parts or gaps G12V): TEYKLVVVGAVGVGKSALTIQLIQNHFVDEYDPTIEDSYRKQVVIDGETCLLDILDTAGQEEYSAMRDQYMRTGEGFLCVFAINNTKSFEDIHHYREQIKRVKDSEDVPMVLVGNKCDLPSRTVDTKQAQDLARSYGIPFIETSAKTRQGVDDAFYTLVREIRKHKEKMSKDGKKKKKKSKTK
KRAS G12D, sequence (P01116 other isoform, or with tags, fused parts or gaps G12D): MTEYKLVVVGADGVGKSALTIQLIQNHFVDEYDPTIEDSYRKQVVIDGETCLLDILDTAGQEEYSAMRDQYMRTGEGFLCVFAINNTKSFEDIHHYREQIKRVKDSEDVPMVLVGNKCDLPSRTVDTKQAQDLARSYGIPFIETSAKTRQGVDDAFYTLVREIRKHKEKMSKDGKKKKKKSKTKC
HRAS Wild Type, sequence (P01112 2-184): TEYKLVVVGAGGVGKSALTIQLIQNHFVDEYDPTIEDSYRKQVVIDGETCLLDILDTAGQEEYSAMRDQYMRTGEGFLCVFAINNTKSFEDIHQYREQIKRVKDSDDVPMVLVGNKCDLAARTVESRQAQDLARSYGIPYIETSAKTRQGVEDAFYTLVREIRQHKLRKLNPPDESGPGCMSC

Row | Structure (SMILES) | IC50 [1] | Kd (NRAS Wild Type) | IC50 [2] | Kd (KRAS G12D) | Kd (KRAS G12C) | IC50 [3] | Kd (HRAS Wild Type) | Kd (KRAS Wild Type) | Kd (KRAS G12V)
1 | F/C=C1\CN2CCC[C@@]2(COc2nc3c4c(nc(-c5c(C6CC6)c(Cl)cc6[nH]ncc56)c(F)c4n2)OC[C@@H]2COCCCN32)C1 [Example 16, (8aS)-5-(6-chloro-5-cyclopropyl-1H-indazol-4-yl)-4-fluoro-2-{[(2Z,7aS)-2-(fluoromethylidene)tetrahydro-1H-pyrrolizin-7a(5H)-yl]methoxy}-8a,9,12,13-tetrahydro-8H,11H-7,10-dioxa-1,3,6,13a-tetraazanaphtho[1,8-ab]heptalene] | 23 nM | > 10000 nM | 22 nM | 3 nM | 4 nM | 2 nM | > 10000 nM | 4 nM | 4 nM
2 | C=C1CN2CCC[C@@]2(COc2nc3c4c(nc(-c5c(C6CC6)ccc6[nH]ncc56)c(F)c4n2)OC[C@@H]2COCCCN32)C1 [Example 20, (8aS)-5-(5-cyclopropyl-1H-indazol-4-yl)-4-fluoro-2-{[(7aS)-2-methylidenetetrahydro-1H-pyrrolizin-7a(5H)-yl]methoxy}-8a,9,12,13-tetrahydro-8H,11H-7,10-dioxa-1,3,6,13a-tetraazanaphtho[1,8-ab]heptalene] | 400 nM | > 10000 nM | 275 nM | 51 nM | 31 nM | 17 nM | > 10000 nM | 91 nM | 50 nM
3 | C=C1CN2CCC[C@@]2(COc2nc3c4c(nc(-c5c(C6CC6)c(Cl)cc6[nH]ncc56)c(F)c4n2)OC[C@@H]2CCCCN32)C1 [Example 21, (8aS)-5-(6-chloro-5-cyclopropyl-1H-indazol-4-yl)-4-fluoro-2-{[(7aS)-2-methylidenetetrahydro-1H-pyrrolizin-7a(5H)-yl]methoxy}-8,8a,9,10,11,12-hexahydro-7-oxa-1,3,6,12a-tetraazabenzo[4,5]cyclohepta[1,2,3-de]naphthalene] | 268 nM | > 10000 nM | 381 nM | 21 nM | 14 nM | 8 nM | > 10000 nM | 31 nM | 15 nM
4 | C=C1CN2CCC[C@@]2(COc2nc3c4c(nc(-c5c(C6CC6)c(Cl)cc6[nH]ncc56)c(F)c4n2)OC[C@@H]2COCCN32)C1 [Example 22, (8aS)-5-(6-chloro-5-cyclopropyl-1H-indazol-4-yl)-4-fluoro-2-{[(7aS)-2-methylidenetetrahydro-1H-pyrrolizin-7a(5H)-yl]methoxy}-8a,9,11,12-tetrahydro-8H-7,10-dioxa-1,3,6,12a-tetraazabenzo[4,5]cyclohepta[1,2,3-de]naphthalene] | 839 nM | > 10000 nM | 636 nM | 250 nM | – | 98 nM | > 10000 nM | – | –
5 | C=C1CN2CCC[C@@]2(COc2nc3c4c(nc(-c5c(C6CC6)c(Cl)cc6[nH]ncc56)c(F)c4n2)OC[C@@H]2CC[C@H](O)CN32)C1 [Example 23, (8aS,11S)-5-(6-chloro-5-cyclopropyl-1H-indazol-4-yl)-4-fluoro-2-{[(7aS)-2-methylidenetetrahydro-1H-pyrrolizin-7a(5H)-yl]methoxy}-8,8a,9,10,11,12-hexahydro-7-oxa-1,3,6,12a-tetraazabenzo[4,5]cyclohepta[1,2,3-de]naphthalen-11-ol] | 156 nM | > 10000 nM | 102 nM | 3 nM | 3 nM | 3 nM | > 10000 nM | 3 nM | 2 nM
6 | C=C1CN2CCC[C@@]2(COc2nc3c4c(nc(-c5c(C(C)C)c(Cl)cc6[nH]ncc56)c(F)c4n2)OC[C@@H]2COCCCN32)C1 [Example 24, (8aS)-5-[6-chloro-5-(propan-2-yl)-1H-indazol-4-yl]-4-fluoro-2-{[(7aS)-2-methylidenetetrahydro-1H-pyrrolizin-7a(5H)-yl]methoxy}-8a,9,12,13-tetrahydro-8H,11H-7,10-dioxa-1,3,6,13a-tetraazanaphtho[1,8-ab]heptalene] | 18 nM | > 10000 nM | 45 nM | 5 nM | 4 nM | 6 nM | > 10000 nM | 7 nM | 5 nM
7 | COC/C=C1\CN2CCC[C@@]2(COc2nc3c4c(nc(-c5c(C6CC6)c(Cl)cc6[nH]ncc56)c(F)c4n2)OC[C@@H]2COCCCN32)C1 [Example 28, (8aS)-5-(6-chloro-5-cyclopropyl-1H-indazol-4-yl)-4-fluoro-2-{[(2Z,7aS)-2-(2-methoxyethylidene)tetrahydro-1H-pyrrolizin-7a(5H)-yl]methoxy}-8a,9,12,13-tetrahydro-8H,11H-7,10-dioxa-1,3,6,13a-tetraazanaphtho[1,8-ab]heptalene] | 26 nM | > 10000 nM | 19 nM | 1 nM | 2 nM | 4 nM | > 10000 nM | 3 nM | 2 nM

Continued by falling IC50 [1], values first:

Row | IC50 [1] | Kd (NRAS Wild Type) | IC50 [2] | Kd (KRAS G12D) | Kd (KRAS G12C) | IC50 [3] | Kd (HRAS Wild Type) | Kd (KRAS Wild Type) | Kd (KRAS G12V) | Structure (SMILES)
8 | 103 nM | > 10000 nM | 62 nM | 6 nM | 5 nM | 3 nM | > 10000 nM | 8 nM | 9 nM | Fc1c(-c2c(C3CC3)c(Cl)cc3[nH]ncc23)nc2c3c(nc(OC[C@]45CCCN4CC4(CC4)C5)nc13)N1CCCOC[C@H]1CO2 [Example 19, (8aS)-2-{[(7′aR)-dihydro-1′H,3′H-spiro[cyclopropane-1,2′-pyrrolizin]-7′a(5′H)-yl]methoxy}-5-(6-chloro-5-cyclopropyl-1H-indazol-4-yl)-4-fluoro-8a,9,12,13-tetrahydro-8H,11H-7,10-dioxa-1,3,6,13a-tetraazanaphtho[1,8-ab]heptalene]
9 | 16 nM | > 10000 nM | 17 nM | 1 nM | 1 nM | 2 nM | > 10000 nM | 2 nM | 1 nM | C/C=C1\CN2CCC[C@@]2(COc2nc3c4c(nc(-c5c(C6CC6)c(Cl)cc6[nH]ncc56)c(F)c4n2)OC[C@@H]2COCCCN32)C1 [Example 26, (8aS)-5-(6-chloro-5-cyclopropyl-1H-indazol-4-yl)-2-{[(2Z,7aS)-2-ethylidenetetrahydro-1H-pyrrolizin-7a(5H)-yl]methoxy}-4-fluoro-8a,9,12,13-tetrahydro-8H,11H-7,10-dioxa-1,3,6,13a-tetraazanaphtho[1,8-ab]heptalene]
10 | 8 nM | > 10000 nM | 4 nM | 1 nM | 1 nM | < 1 nM | > 10000 nM | 1 nM | 2 nM | C=C1CN2CCC[C@@]2(COc2nc3c4c(nc(-c5c6c(cc7[nH]ncc57)CCC[C@H]6C)c(F)c4n2)OC[C@@H]2COCCCN32)C1 [Example 29, (8aS)-4-fluoro-2-{[(7aS)-2-methylidenetetrahydro-1H-pyrrolizin-7a(5H)-yl]methoxy}-5-[(5R)-5-methyl-5,6,7,8-tetrahydro-1H-benzo[f]indazol-4-yl]-8a,9,12,13-tetrahydro-8H,11H-7,10-dioxa-1,3,6,13a-tetraazanaphtho[1,8-ab]heptalene]
